Reference: the supplement of paper PMC12669032

How the values were obtained:
Experiment in all cases: growth AUC relative to DMSO control (fraction); higher = more growth (less inhibition)
Conditions in all cases: 24 h
[1] = tested on: Roseburia intestinalis
Method: (§1)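 Validation screen: 11 independently purchased pesticides tested on 8 gut bacterial strains at 2.5–320 µM in mGAM, anaerobic, 37 °C, 24 h. Growth AUC normalised to DMSO controls, mean of 3 independent experiments.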

[2] = tested on: Lactobacillus gasseri
Method: as §1

[3] = tested on: Clostridium difficile
Method: as §1

[4] = tested on: Bacteroides uniformis
Method: as §1

[5] = tested on: Streptococcus salivarius
Method: as §1

[6] = tested on: Escherichia coli IAI1
Method: as §1

[7] = tested on: Eubacterium rectale
Method: as §1

[8] = tested on: Parabacteroides distasonis
Method: as §1

CCCN(CCOc1c(Cl)cc(Cl)cc1Cl)C(=O)n1ccnc1 [PROCHLORAZ]
growth AUC
Conditions | [1] | [2] | [3] | [4] | [5] | [6] | [7] | [8]
2.5 µM | 0.993 | 1.01 | 0.989 | 1 | 1.01 | 1 | 0.748 | 0.957
5 µM | 1.02 | 1 | 0.977 | 0.994 | 0.995 | 0.987 | 0.524 | 0.858
10 µM | 0.949 | 0.944 | 0.956 | 0.938 | 0.973 | 0.966 | 0.397 | 0.68
20 µM | 0.718 | 0.931 | 1.01 | 0.92 | 0.945 | 0.956 | 0.125 | 0.608
40 µM | 0.594 | 0.957 | 0.875 | 0.886 | 0.984 | 0.988 | 0.0225 | 0.363
80 µM | 0.0292 | 0.903 | 0.913 | 0.812 | 0.962 | 0.989 | 0.0308 | 0.0195
160 µM | 0.0197 | 0.836 | 0.391 | 0.767 | 0.935 | 0.983 | 0.0176 | 0.0246

CC[C@H](C)[C@H]1O[C@]2(C=C[C@@H]1C)C[C@@H]1C[C@@H](C/C=C(\C)[C@@H](O[C@H]3C[C@H](OC)[C@@H](O[C@H]4C[C@H](OC)[C@@H](NC)[C@H](C)O4)[C@H](C)O3)[C@@H](C)/C=C/C=C3\CO[C@@H]4[C@H](O)C(C)=C[C@@H](C(=O)O1)[C@]34O)O2.O=C(O)c1ccccc1 [EMAMECTIN BENZOATE]
growth AUC
Conditions | [1] | [2] | [3] | [4] | [5] | [6] | [7] | [8]
2.5 µM | 0.859 | 1.01 | 1.01 | 1.03 | 1.08 | 1.06 | 1.03 | 1.09
5 µM | 0.396 | 1.01 | 0.987 | 1.04 | 1 | 1.02 | 1.04 | 0.898
10 µM | 0.0369 | 0.949 | 0.916 | 0.992 | 1.02 | 1 | 0.693 | 0.487
20 µM | 0.0348 | 0.822 | 0.967 | 1.03 | 0.938 | 0.979 | 0.0185 | 0.0163
40 µM | 0.0127 | 0.848 | 0.654 | 0.839 | 1.14 | 1.05 | 0.0159 | 0.00619
80 µM | 0.00913 | 1.02 | 0.0139 | 0.669 | 1.16 | 1.04 | 0.0289 | 0.0234
160 µM | 0.0441 | 1.07 | 0.0469 | 0.732 | 1.27 | 1.06 | 0.126 | 0.0419

N#Cc1c(Cl)c(Cl)c(Cl)c(C#N)c1Cl [CHLOROTHALONIL]
growth AUC
Conditions | [1] | [2] | [3] | [4] | [5] | [6] | [7] | [8]
2.5 µM | 0.978 | 1.02 | 1.03 | 1.04 | 1.08 | 1.02 | 1.07 | 1.13
5 µM | 1.01 | 1.03 | 1.01 | 1.01 | 0.963 | 0.986 | 0.894 | 1.04
10 µM | 0.91 | 1 | 0.963 | 0.981 | 1 | 1.01 | 0.836 | 0.921
20 µM | 0.713 | 0.925 | 0.993 | 0.889 | 0.907 | 0.974 | 0.593 | 0.961
